According to ChEMBL document CHEMBL4033647, “Novel coumarin- and quinolinone-based polycycles as cell division cycle 25-A and -C phosphatases inhibitors induce proliferation arrest and apoptosis in cancer cells” (Eur J Med Chem, 2017):
Active and inactive are the calls of the source. No cut-off for these calls is given here.

Experiments:
[1] = molecular target: T1, M-phase inducer phosphatase 3 (Homo sapiens, UniProt P30307); assay: Inhibition of recombinant human full length GST-tagged CDC25C expressed in Escherichia coli BL21-DE3 pLysS using 3-O-methylfluorescein phosphate as substrate after 2 hrs by fluorimetric analysis
T1 sequence (P30307 whole entry): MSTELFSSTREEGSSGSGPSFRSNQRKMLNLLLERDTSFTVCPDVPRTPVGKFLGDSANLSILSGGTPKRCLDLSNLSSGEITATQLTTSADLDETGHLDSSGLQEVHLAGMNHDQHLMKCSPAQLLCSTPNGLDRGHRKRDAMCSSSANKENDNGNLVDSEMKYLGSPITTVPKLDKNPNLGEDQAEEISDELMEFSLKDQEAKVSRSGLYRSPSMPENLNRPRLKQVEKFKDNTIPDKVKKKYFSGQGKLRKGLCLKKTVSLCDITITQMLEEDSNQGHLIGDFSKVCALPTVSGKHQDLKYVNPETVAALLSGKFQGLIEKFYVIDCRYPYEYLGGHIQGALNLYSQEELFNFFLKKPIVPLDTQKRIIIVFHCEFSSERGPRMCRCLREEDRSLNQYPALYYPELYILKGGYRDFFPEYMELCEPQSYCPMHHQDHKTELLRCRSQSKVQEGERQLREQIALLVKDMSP

PC-3 = assay: Cytotoxicity against human PC3 cells assessed as reduction in cell viability after 72 hrs by MTT assay; assay type: functional, cell-based; conditions: PC-3, 72 h
SK-MEL-28 = assay: Cytotoxicity against human SK-MEL-28 cells assessed as reduction in cell viability after 72 hrs by MTT assay; assay type: functional, cell-based; conditions: SK-MEL-28, 72 h
A549 = assay: Cytotoxicity against human A549 cells assessed as reduction in cell viability after 72 hrs by MTT assay; assay type: functional, cell-based; conditions: A549, 72 h
[2] = Cytotoxicity against human U373n cells assessed as reduction in cell viability after 72 hrs by MTT assay; assay type: functional, cell-based
Hs 683 = assay: Cytotoxicity against human Hs683 cells assessed as reduction in cell viability after 72 hrs by MTT assay; assay type: functional, cell-based; conditions: Hs 683, 72 h
[3] = molecular target: T2, M-phase inducer phosphatase 1 (Homo sapiens, UniProt P30304); assay: Inhibition of recombinant human full length GST-tagged CDC25A expressed in Escherichia coli BL21-DE3 pLysS using 3-O-methylfluorescein phosphate as substrate after 2 hrs by fluorimetric analysis
T2 sequence (P30304 whole entry): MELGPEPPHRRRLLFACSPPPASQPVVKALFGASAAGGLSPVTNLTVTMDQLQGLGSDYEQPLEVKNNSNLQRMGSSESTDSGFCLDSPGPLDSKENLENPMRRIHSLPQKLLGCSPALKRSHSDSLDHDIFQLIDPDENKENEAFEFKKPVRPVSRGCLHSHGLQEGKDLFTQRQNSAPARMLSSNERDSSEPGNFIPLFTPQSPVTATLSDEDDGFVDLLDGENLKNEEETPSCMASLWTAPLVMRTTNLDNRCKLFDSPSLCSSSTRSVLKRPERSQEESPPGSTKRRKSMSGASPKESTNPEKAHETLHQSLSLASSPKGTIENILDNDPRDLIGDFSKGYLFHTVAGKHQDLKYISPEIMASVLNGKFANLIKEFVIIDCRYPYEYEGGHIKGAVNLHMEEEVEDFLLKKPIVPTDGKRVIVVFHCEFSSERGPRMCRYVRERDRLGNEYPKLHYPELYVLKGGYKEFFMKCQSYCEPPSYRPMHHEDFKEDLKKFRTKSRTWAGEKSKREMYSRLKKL

MCF7 = assay: Cytotoxicity against human MCF7 cells assessed as reduction in cell viability after 72 hrs by MTT assay; assay type: functional, cell-based; conditions: MCF7, 72 h
A-431 [4] = assay: Induction of apoptosis in human A431 cells assessed as caspase-3 cleavage at 10 to 50 uM after 24 hrs by Western blot analysis; assay type: functional, cell-based
A-431 [5] = assay: Cell cycle arrest in human A431 cells assessed as accumulation at G1 phase at 10 uM after 24 hrs by propidium iodide staining based flow cytometric analysis (reference value: 53.04%); assay type: functional
A-431 [6] = assay: Cell cycle arrest in human A431 cells assessed as accumulation at subG1 phase at 50 uM after 24 hrs by propidium iodide staining based flow cytometric analysis (reference value: 3.40%); assay type: functional
A-431 [7] = assay: Cell cycle arrest in human A431 cells assessed as accumulation at G2/M phase at 10 uM after 24 hrs by propidium iodide staining based flow cytometric analysis (reference value: 26.23%); assay type: functional
A-431 [8] = assay: Decrease in CDC25C protein expression level in human A431 cell extract at 50 uM after 24 hrs by Western blot analysis; assay type: functional, cell-based
A-431 [9] = assay: Cell cycle arrest in human A431 cells assessed as accumulation at S phase at 10 uM after 24 hrs by propidium iodide staining based flow cytometric analysis (reference value: 17.33%); assay type: functional
A-431 [10] = assay: Cell cycle arrest in human A431 cells assessed as accumulation at G2/M phase at 50 uM after 24 hrs by propidium iodide staining based flow cytometric analysis (reference value: 26.23%); assay type: functional
A-431 [11] = assay: Cytotoxicity against human A431 cells assessed as reduction in cell viability after 24 hrs by MTT assay; assay type: functional, cell-based; conditions: A-431, 24 h
A-431 [12] = assay: Effect on CDC25C splice variant protein expression in human A431 cell extract at 50 uM after 24 hrs by Western blot analysis; assay type: functional, cell-based
A-431 [13] = assay: Cell cycle arrest in human A431 cells assessed as accumulation at S phase at 50 uM after 24 hrs by propidium iodide staining based flow cytometric analysis (reference value: 17.33%); assay type: functional
Homo sapiens = organism: Homo sapiens; assay: Selectivity ratio of IC50 for recombinant human full length GST-tagged CDC25A expressed in Escherichia coli BL21-DE3 pLysS to IC50 for recombinant human full length GST-tagged CDC25C expressed in Escherichia coli BL21-DE3 pLysS
A-431 [14] = assay: Cell cycle arrest in human A431 cells assessed as accumulation at G1 phase at 50 uM after 24 hrs by propidium iodide staining based flow cytometric analysis (reference value: 53.04%); assay type: functional
[15] = molecular target: T3, M-phase inducer phosphatase 3 (Homo sapiens) (UniProt P30307); conditions: 10 to 50 uM
T3 sequence (whole entry): T1 sequence (P30307 whole entry)
Description: Inhibition of CDC25C in human A431 cells assessed as increase in CDK-mediated phosphorylation of histone H3 at Ser10 residues at 10 to 50 uM after 24 hrs by Western blot analysis

A-431 [16] = assay: Cell cycle arrest in human A431 cells assessed as accumulation at subG1 phase at 10 uM after 24 hrs by propidium iodide staining based flow cytometric analysis (reference value: 3.40%); assay type: functional
A-431 [17] = assay: Induction of apoptosis in human A431 cells assessed as PARP cleavage at 50 uM after 24 hrs by Western blot analysis; assay type: functional, cell-based

IC50 [1] [µM] | IC50 [3] [µM] | SMILES | IC50 (PC-3) [µM] | IC50 (SK-MEL-28) [µM] | IC50 (A549) [µM] | IC50 [2] [µM] | IC50 (Hs 683) [µM] | IC50 (MCF7) [µM] | further results
0.3 | 1.2 | CCN(CC)c1ccc2c(c1)oc(=O)c1c3c(ccc12)C(=O)C=CC3=O | 45 | 72 | 98 | 59 | 98 | 58 | 
1 | 2.9 | Cc1ccc2c(c1)oc(=O)c1c3c(ccc12)C(=O)C=CC3=O | > 100 | > 100 | > 100 | 98 | > 100 | 82 | 
0.69 | 2.19 | O=C1C=CC(=O)c2c1ccc1c2c(=O)oc2cc(F)ccc21 | 36 | 18 | 1 | 7 | 4 | 11 | 
0.8 | 6.6 | O=C1C=CC(=O)c2c1ccc1c2c(=O)oc2cc(O)ccc21 | 27 | 29 | 19 | 9 | 11 | 9 | 
5.5 | 4.04 | O=C1C=CC(=O)c2c1ccc1c2c(=O)[nH]c2cc(Cl)ccc21 | 4 | 5 | 0.13 | 1 | 1 | 2 | 
0.98 | 2.88 | COc1ccc2c(c1)oc(=O)c1c3c(ccc12)C(=O)C=CC3=O | 31 | 31 | 30 | 16 | 24 | 9 | 
4.46 | 2.85 | O=C1C=CC(=O)c2c1ccc1c2c(=O)[nH]c2cc(F)ccc21 | 4 | 8 | 18 | 3 | 9 | 27 | 
4.37 | 3.23 | O=C1C=CC(=O)c2c1ccc1c2c(=O)[nH]c2c3ccccc3ccc12 | 42 | 72 | 45 | 42 | 30 | 30 | 
3.64 | 7.73 | O=C1C=CC(=O)c2c1ccc1c2c(=O)[nH]c2ccccc21 | 0.9 | 1.5 | 1.8 | 2.7 | 2.8 | 0.9 | Activity (A-431 [4]): inactive; Activity (A-431 [5]): 57.01%; Activity (A-431 [6]): 12.81%; Activity (A-431 [7]): 24.83%; Activity (A-431 [8]): Active; Activity (A-431 [9]): 11.9%; Activity (A-431 [10]): 26.28%; IC50 (A-431 [11]): 8.2 µM; Activity (A-431 [12]): Active; Activity (A-431 [13]): 6.98%; Ratio IC50 (Homo sapiens): 2; Activity (A-431 [14]): 53.93%; inhibition [15]: Active; Activity (A-431 [16]): 6.26%
0.4 | 3.5 | O=C1C=CC(=O)c2c1ccc1c2c(=O)oc2ccc(F)cc21 | 43 | 40 | 17 | 36 | 19 | 3 | Ratio IC50 (Homo sapiens): 8.75
 |  | O=C1C(SCCO)=C(SCCO)C(=O)c2ccccc21 | 3.4 | 2.3 | 1.45 | 1.85 | 2.8 | 0.96 | 
7.12 | 3.11 | O=C1C=CC(=O)c2c1ccc1c2c(=O)oc2cc(OCc3ccccc3)ccc21 | > 100 | > 100 | > 100 | > 100 | > 100 | > 100 | 
1.44 | 2.57 | O=C1C=CC(=O)c2c1ccc1c2c(=O)oc2ccc(Cl)cc21 | 19 | 33 | 25 | 12 | 6 | 13 | 
4.67 | 3.37 | O=C1C=CC(=O)c2c1ccc1c2c(=O)[nH]c2ccc(F)cc21 | 3 | 3 | 4 | 2 | 3 | 4 | 
14.9 | 13 | Cn1c(=O)c2c3c(ccc2c2ccccc21)C(=O)C=CC3=O | 32 | 68 | 68 | 41 | 67 | 34 | 
0.77 | 1.61 | O=C1C=CC(=O)c2c1ccc1c2c(=O)oc2cc(Cl)ccc21 | 4.4 | 7.8 | 3.2 | 3.7 | 1.2 | 2.8 | Activity (A-431 [4]): inactive; Activity (A-431 [5]): 48.91%; Activity (A-431 [6]): 4.07%; Activity (A-431 [7]): 28.92%; Activity (A-431 [8]): inactive; Activity (A-431 [9]): 18.57%; Activity (A-431 [10]): 25.91%; Activity (A-431 [17]): inactive; IC50 (A-431 [11]): 29.2 µM; Activity (A-431 [12]): inactive; Activity (A-431 [13]): 16.24%; Activity (A-431 [14]): 53.78%; Activity (A-431 [16]): 3.6%
0.1 | 1.5 | O=C1C=CC(=O)c2c1ccc1c2c(=O)oc2c3ccccc3ccc12 | 75 | > 100 | 70 | 55 | 4 | 7 | Ratio IC50 (Homo sapiens): 15
